Paper PMC11207953, “Phytochemical Investigation of Polyphenols from the Aerial Parts of Tanacetum balsamita Used in Transylvanian Ethnobotany and Parallel Artificial Membrane Permeability Assay” (Plants, 2024)

Key:
[1] = Parallel artificial membrane permeability assay for the blood–brain barrier (PAMPA-BBB), coupled with UHPLC-DAD; type: in vitro ADME; details: constituent measured within T. balsamita 50% (v/v) ethanolic extract (TbE), donor pH 7.4, acceptor pH 7.4, 37 °C, Pe in cm/s, n = 9, read-out: logPe PAMPA-BBB (n = 9) (converted)
Source text: (§1) The ability of the compounds in T. balsamita extract (TbE and TbW) to cross biological membranes of the gastrointestinal (GI) tract and the blood–brain barrier (BBB) by passive diffusion was investigated using the PAMPA model. The coupling of this assay with UHPLC separation allowed the rapid simultaneous investigation of the membrane permeability of the compounds present in the extract (Figure 3). […] Due to the artificial nature of the membrane used in the assay, only passive transport mechanisms can occur, unlike in cell-based assays. This is particularly important in the case of plant extracts due to their complexity, as the evaluation of results obtained by different co-existing mechanisms (e.g., active transport, or metabolism) can be challenging. Furthermore, no significant differences in effective permeabilities are observed in the PAMPA, whether assessed with single compounds or mixtures. […]
(§2) After incubation, sandwich plates were separated, and the concentrations of each compound in the starting donor solution and in the acceptor and donor wells were determined in triplicate by chromatographic peak areas derived from the UHPLC-DAD method described above. UV spectra and chromatograms were recorded at 200–400 nm, and the chromatograms acquired at the UV absorption maxima of each compound were used for data evaluation. […]

[2] = Parallel artificial membrane permeability assay for the gastrointestinal tract (PAMPA-GI), coupled with UHPLC-DAD; type: in vitro ADME; details: constituent measured within T. balsamita 50% (v/v) ethanolic extract (TbE), donor pH 6.8, acceptor pH 7.4, 37 °C, Pe in cm/s, n = 9, read-out: logPe PAMPA-GI (n = 9) (converted)
Source text: as §1, §2

[3] = design: method as in PMID 29182998; details: isolated from Tanacetum parthenium; cited from earlier work

Row | Papp at 4 h [1] [nm/s] | Papp at 4 h [2] [nm/s] | SMILES | permeability in the PAMPA-BBB model (in words) [3]
1 | 347 | 178 | O=c1cc(-c2ccc(O)cc2)oc2cc(O)cc(O)c12 [Compound 86, apigenin] | good permeability
2 | – | – | COc1c(O)cc2oc(-c3ccc(O)c(O)c3)c(OC)c(=O)c2c1O [axillarin] | good permeability
3 | – | – | COc1ccc(-c2oc3cc(OC)c(OC)c(O)c3c(=O)c2OC)cc1O [casticin] | good permeability
4 | – | – | COc1ccc(-c2cc(=O)c3c(O)c(OC)c(O)c(OC)c3o2)cc1 [nevadensin] | good permeability
5 | – | – | COc1cc(-c2cc(=O)c3c(O)c(OC)c(O)c(OC)c3o2)ccc1O [sudachitin] | good permeability
